US6878699B1, “Taccalonolide microtubule stabilizing agents” (University of Hawaii, priority 1999, dated 2005)

Key:
[1] = system: SKVLB-1 cell line (sub-line of SK-OV-3 selected for resistance to vinblastine, P-glycoprotein-overexpressing); conditions: SK-OV-3 versus SKVLB-1; Mooberry et al. 1999, Smith et al. 1994; cited from earlier work
[2] = system: SKVLB-1 cell line (sub-line of SK-OV-3 selected for resistance to vinblastine, P-glycoprotein-overexpressing)
Experimental: (§1) A-10 rat aortic smooth muscle cells, SK-OV-3 human ovarian carcinoma cell line and HeLa cells were obtained from the American Type Culture Collection (Manassas, Va.) and were cultured in BME containing 10% FBS and 50 μg/1 mL gentamycin sulfate. […] The A-10, HeLa, SK-OV-3, and SKVBL-1 cells were grown in Basal Medium Eagle containing Earle's salts, 50 μg/ml gentamycin, and 10% fetal bovine sorum (Hyclone, Logan Utah). Vinblastine was added to a final concentration of 1 μg/mL to SKVLB-1 cells 24 hours after passage to maintain selection pressure for P-glycoprotein-overexpressing cells.
(§2) The IC50 for inhibition of cell proliferation was determined by measuring cell-associated protein after drug treatment using the sulforhodamine B assay (see, for example, J. Natl. Cancer Inst. 82:1107-1112 (1990) and Drug Development Res. 34:91-109 (1995)).
(§3) The IC50 for each cell line was calculated from the dose response curves. The resistance factor was calculated by dividing the IC50 of the drug sensitive cell line by the IC50 of the drug resistant cell line. The values represent the mean of 3 or 4 experiments ± the SD.

[3] = system: A-10 rat aortic smooth muscle cells; assay: Indirect immunofluorescence of microtubules, mitotic spindles and nuclei; conditions: low concentration 0.5 μM; cell line not specified (A-10 or HeLa)
Experimental: A-10 cells were grown to 70-85% confluency on glass coverslips in BME/10% FBS. Drug compounds in PBS were added to the indicated final concentrations and cells were incubated for an additional 24 hours. For the staining of microtubules and intermediate filaments, the cells were fixed with cold methanol for 5 minutes, blocked for 20 minutes with PBS containing 10% calf serum to block nonspecific binding sites, and incubated at 37° C. for 60-90 min with monoclonal anti-β-tubulin at the dilutions recommended by the manufacturer. Bound primary antibodies were subsequently visualized by a one hour incubation with fluorescein (FITC)-conjugated sheep antimouse IgG (F-3008; Sigma). The coverslips were washed, stained with 0.1 μg/mL DAPI for 10 minutes, mounted on microscope slides and the fluorescence patterns were examined and photographed using a Zeiss Axioplan microscope equipped with epifluorescence optics for fluorescein and DAPI.

[4] = system: SK-OV-3 human ovarian carcinoma cell line; assay: Inhibition of cell proliferation, sulforhodamine B (SRB) assay; assay type: cell-based; conditions: 48 hr treatment, mean of 3 or 4 experiments ± SD
Experimental: as §1, §2, §3

[5] = system: MDA-MB-435 human mammary adenocarcinoma cell line; assay: as above; conditions: read-out: IC50 inhibition of proliferation, MDA-MB-435, 48 hr treatment, mean of 3 or 4 experiments ± SD
Experimental: as §1, §2, §3

[6] = system: purified glycerol-free bovine brain tubulin; assay: Assembly of purified tubulin (turbidity); assay type: biochemical; conditions: for Potency in tubulin polymerization relative to Taxol/paclitaxel: compared with 2 μM paclitaxel
Experimental: The assembly of purified tubulin was monitored spectrophotometrically by the change in absorbance at 340 nm. Purified glycerol-free bovine brain tubulin (TL-238, Cytoskeleton, Denver, Colo.) was solubilized in ice cold G-PEM buffer (80 mM PIPES, pH 6.9, 1 mM MgCl2, 1 mM EGTA and 1 mM GTP) and taccalonolide, Taxol or vehicle control was added and mixed well. The final concentration of tubulin was 1 mg/ml and ethanol concentration was 1% or less. An aliquot of the mixture was transferred to a room temperature 96 well plate and tubulin polymerization monitored for 60 min. at 35° C. in a temperature controlled microplate spectrophotometer.

[7] = system: SKVLB-1 cell line (sub-line of SK-OV-3 selected for resistance to vinblastine, P-glycoprotein-overexpressing); assay: Inhibition of cell proliferation, SRB assay, multidrug-resistant line
Experimental: as §1, §2, §3

[8] = system: Bc1-2 and caspase 3; conditions: 18 and 24 hrs following treatment
Experimental: Following drug exposure the cells were harvested and cellular proteins extracted in radioimmunoprecipitation buffer in the presence of protease inhibitors as described previously (see Mooberry et al., Supra). The protein concentrations of the samples were determined (Pierce Reagent, Rockford, Ill.) and cell lysate aliquots containing equal concentrations of protein were separated, transferred, probed with specific antibodies, and detected as previously described (see Mooberry et al., in Cancer Res. 59:653-660 (1999)). The Bc1-2 and caspase 3 antibodies were purchased from PharMingin (San Diego, Calif.).

For `COc1ccc(C[C@H]2NC(=O)/C=C/C[C@@H]([C@H](C)[C@H]3O[C@@H]3c3ccccc3)OC(=O)[C@H](CC(C)C)OC(=O)[C@H](C)CNC2=O)cc1Cl` [cryptophycin 1], the “Resistance factor (literature)” value [1] is listed as 1.1.
In the case of `C=C1C[C@H](C)C[C@@H]2CC=C[C@@H](C/C=C\C(=O)O[C@H]([C@@H](O)/C=C/[C@@H]3CC(C)=CCO3)C[C@@H]3O[C@H]3[C@@H](O)C1)O2` [laulimalide], the “Resistance factor (literature)” value [1] is listed as 105.
For `CC(=O)O[C@H]1C(=O)[C@@]2(C)[C@H]([C@H](OC(=O)c3ccccc3)[C@]3(O)C[C@H](OC(=O)[C@H](O)[C@@H](NC(=O)c4ccccc4)c4ccccc4)C(C)=C1C3(C)C)[C@]1(OC(C)=O)CO[C@@H]1C[C@@H]2O` [Paclitaxel], the “Resistance factor (literature)” value [1] is listed as “greater than 58,000” and the inhibition [2] is listed as no more than 70%.
In the case of taccalonolide A, the “First observable cellular change in dose-response study” value [3] is reported as “abnormal coordination of the DNA in the metaphase plate during mitosis”, the IC50 [4] is reported as 2.3 µM and the IC50 [5] is reported as 2.1 µM. For the same molecule, the “Effect on polymerization of purified tubulin” value ([6]; 2 μM and 200 μM, 35° C., 60 min) was “stimulated the polymerization of tubulin”, the “Potency in tubulin polymerization relative to Taxol/paclitaxel” value ([6]; listed as Taccalonolide) was “much less potent than Taxol” and the “Potency in tubulin polymerization relative to Taxol/paclitaxel” value ([6]; listed as taccalonolide) was “much less potent than paclitaxel”. For the same molecule, the “Inhibition of proliferation of SKVLB-1 (in words)” value ([7]; P-glycoprotein overexpressing line) was “completely inhibit the proliferation”, the Resistance factor ([7]; SK-OV-3 (drug-sensitive) versus SKVLB-1 (drug resistant) IC50) was 285 and the “Substrate for P-glycoprotein mediated drug transport” value ([7]; inferred from resistance factor SK-OV-3/SKVLB-1) was “poor substrate”. The IC50 ([7]; read-out: IC50 inhibition of proliferation, SKVLB-1, 48 hr treatment, SRB assay, multidrug-resistant line, mean of 3 or 4 experiments ± SD) was 656 ± 42 µM and the “p17 subunit of activated caspase 3 by immunoblot” value [8] was “detected”.
